For orientation: IC50 means the midpoint of a concentration-inhibition curve.

The values that follow come from US5607966A, “Esters and amides of non-steroidal anti-inflammatory carboxylic acids which may be used as anti-oxidants, 5-lipoxygenase inhibitors and non-steroidal anti-inflammatory prodrugs” (Alcon Laboratories, Inc., priority 1994, dated 1997).

Experiment [1] is described as follows: phospholipid oxidation assay (conjugate diene formation in liposomes, Fe+3/EDTA and ascorbate). It is filed as biochemical. As to conditions: Fe+3/EDTA (167 μM) and ascorbate (167 μM), one hour. Here is the method: Antioxidant activity was measured using a phospholipid oxidation assay. Liposomes were formed from dilineoleolylphosphocholine and the test compound. Free radical damage was induced by exposure to Fe^+3 /EDTA (167 micromolar [μM]) and ascorbate (167 μM). Oxidation was terminated after one hour by freezing in liquid nitrogen. Lyophilized samples were then dissolved in methanol or water. Oxidation was measured by conjugate diene formation, monitored using UV spectroscopy as described in Biochimica et Biophyica Acta, volume 1081, 181-187, (1991). The IC50 was calculated using the following non-linear regression algorithm: Y=A/[1+(B/X)^c ], wherein A=maximum, B=IC^50 and c=cooperativity or relative broadness of the curves. The minimum was assumed to be zero.

The next experiment deals with bovine retinal pieces. In words: inhibition of lipid peroxide formation (TBARS) in bovine retinal pieces after hypoxia/reoxygenation. The format is cell-based. As to conditions: hypoxia 1 hour, reoxygenated for 1 hour, agent added after 50 minutes of hypoxia. Here is the method:
The cytoprotective effects of the compounds were measured using bovine retinal pieces. Retinal tissues were incubated in hypoxic media for 1 hour. After 50 minutes of hypoxia, test agents were added to the media to allow 10 minutes for the drug to diffuse into the tissue prior to reoxygenation. The vehicle by itself, was added to the non-drug group. Following the incubation period, tissue was reoxygenated for 1 hour. Lipid peroxidation was assessed by the formation of thiobarbituric acid reacting substances (TBARS). The tissues were homogenized and added to the trichloroacetic acid-thiobarbituric acid reagent and heated in the presence of BHT. The homogenate was filtered and the absorbance of the supernant was measured spectrophotometrically. A double derivative technique was used to calculate the concentration of TBARS present in each sample. Quantitation was based on a molar extinction coefficient of 1.56×10^5.

The subject of experiment [2] is endotoxin-induced uveitis in female Lewis rats (neutrophil influx into ocular tissue). Briefly: endotoxin-induced uveitis model, neutrophil influx (MPO activity) into the eye after topical administration. The format is in vivo, rat (female Lewis). As to conditions: for % Inhibition of Influx: topical 5 μl to each eye, 24 hours post endotoxin; for inhibition of neutrophil influx into the rat eye (in words): endotoxin induced uveitis, following topical administration. On the procedure: The topical ophthalmic activity of representative compounds of the present invention, as compared with dexamethasone, is shown in Table 5 below. The compounds were evaluated in an endotoxin-induced uveitis model. This subacute model of ocular inflammation is characterized by the infiltration of neutrophils into the ocular tissue following administration of an endotoxin.
Ocular inflammation in female Lewis rats was initiated by hindpaw injection of 0.1 milliliters [ml] sterile saline (0.9% NaCl, weight:volume [w:v]) containing […] bacterial endotoxin (LPS; Escherichia coli 055:B5). Test compound or vehicle (carbopol/maxidex), 5 μl, was administered topically to each eye of the experimental animal 20 and 24 hours prior to endotoxin injection, immediately before endotoxin injection, and 4 and 20 hours after endotoxin injection. Twenty-four hours post endotoxin injection, animals were sacrificed by CO2 inhalation, and total ocular polymorphonuclear neutrophil (PMN) content was assessed indirectly by determination of myleoperoxide activity (MPO).
Ocular tissues were prepared for the quantification of neutrophil content as follows: Eyes were homogenized in 2.5 ml of ice-cold 50 mM phosphate/10mM N-ethylmaleimide buffer. The Brinkman homogenation probe was rinsed three (3) times with 2.5 ml of the same buffer and the probe washings were combined with the initial tissue homogenate. The homogenate was centrifuged for 30 minutes at 12,000×gravitational constant [g] at 4° C. The supernatant was discarded and the proteinaceous pellet was solubilized on 0.5 ml of ice-cold 0.5% hexadecyltrimethyl ammonium bromide (HTABr)/50 mM phosphate buffer (pH 6.0). The detergent-treated pellet homogenate was centrifuged at 4° C. for 30 minutes at 12,000×g and the supernatant collected and assayed for MPO activity in a buffer containing 50 mM phosphate/250 mM HTABr/250 μM hydrogen peroxide and 1.5 mM o-dianisidine (pH 6.0). o-Dianisidine oxidation was monitored spectrophotometrically at a wavelength of 460 nanometers [nm].

For another experiment, the target named is T1, 5-lipoxygenase (Oryctolagus cuniculus, UniProt G1SNX0).
T1 construct: neutrophils isolated from rabbit peripheral blood; endogenous in cells; host or cells: neutrophils from peripheral blood of New Zealand Albino rabbits
T1 sequence (G1SNX0 1-674): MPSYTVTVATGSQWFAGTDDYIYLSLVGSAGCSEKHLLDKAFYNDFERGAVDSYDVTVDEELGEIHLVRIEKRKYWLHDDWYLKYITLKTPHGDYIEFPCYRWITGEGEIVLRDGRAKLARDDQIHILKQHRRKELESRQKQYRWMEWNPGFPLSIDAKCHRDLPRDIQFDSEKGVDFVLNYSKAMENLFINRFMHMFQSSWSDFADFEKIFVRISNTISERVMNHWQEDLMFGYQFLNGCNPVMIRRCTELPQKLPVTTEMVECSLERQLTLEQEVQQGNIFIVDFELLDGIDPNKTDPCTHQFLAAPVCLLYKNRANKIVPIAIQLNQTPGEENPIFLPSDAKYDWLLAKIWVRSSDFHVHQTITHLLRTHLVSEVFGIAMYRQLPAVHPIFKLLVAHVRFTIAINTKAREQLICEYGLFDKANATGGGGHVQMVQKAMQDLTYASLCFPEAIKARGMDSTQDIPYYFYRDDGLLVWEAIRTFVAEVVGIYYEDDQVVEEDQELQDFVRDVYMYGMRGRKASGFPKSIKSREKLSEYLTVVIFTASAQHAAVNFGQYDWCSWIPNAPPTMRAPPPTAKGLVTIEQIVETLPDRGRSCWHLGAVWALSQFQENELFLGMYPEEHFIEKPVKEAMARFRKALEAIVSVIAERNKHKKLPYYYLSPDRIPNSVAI
In words: 5-lipoxygenase inhibition (5-HETE and LTB4 formation) in A23187-stimulated rabbit neutrophils. The format is cell-based, rabbit (New Zealand Albino). As to conditions: A23187 5.0 μM, arachidonic acid 52 μM, 3 minutes at 37° C. Here is the method:
The 5-lipoxygenase inhibitor activity was determined by measuring the inhibition of 5-HETE and LTB4 formation. The ability of a compound to suppress 5-HETE and LTB4 formation was investigated in calcium ionophore (A23187)-stimulated neutrophils isolated from rabbit peripheral blood. Neutrophils were isolated by standard procedures. Briefly, heparinized/calcium chelated blood was obtained from New Zealand Albino (NZA) rabbits by heart puncture. Red cells were removed at 4° C. by dextran sedimentation,as described in Blood, volume 11, 436 (1956). White cells, contained in the supernatant fraction, were sedimented by centrifugation and contaminating red cells removed by hypotonic lysis. The white cell pellet obtained, following red cell lysis and centrifugation, was resuspended in Dulbecco's PBS (Ca^2+ /Mg^2+ -free) and layered onto a 60% Histopaque-1083®/40% Histopaque-1119® cushion (Sigma Chemical, St. Louis, Mo., U.S.A.). The Histopaque® cushion was then centrifuged, and the resulting neutrophil pellet was washed and resuspended in 1/25 of the original blood volume. Aliquots of the cell suspension were pretreated for 5 minutes at 37° C. with carrier (DMSO) or test article dissolved in DMSO. CaCl2 was immediately added to the cell suspension and cells stimulated by addition of 5 microliters [μl] of a mixture containing [1-^14 C]-arachidonic acid and A23187 in DMSO. […]

Regarding `COc1ccc2cc(C(C)C(=O)OCCC3(C)Cc4c(C)c(O)c(C)c(C)c4O3)ccc2c1` (stereo not drawn) [Compound F, 2-(5-hydroxy-2,4,6,7-tetramethyl-2,3-dihydro-benzo[1,2-b]furan-2-yl)ethyl 2-(6-methoxy-2-naphthyl)propionate], in experiment [1], the IC50 came out at 2550 nM.

Consider Vitamin E [reference compound], for which the results for the IC50 (in the experiment with bovine retinal pieces; in experiment [1]) were 5000 nM and 4420 nM, respectively.

With `COc1ccc2cc(C(C)C(=O)OCCC3(C)CCc4c(C)c(O)c(C)c(C)c4O3)ccc2c1` (stereo not drawn) [Compound D, 2-(6-hydroxy-2,5,7,8-tetramethyl-3,4-dihydro-2H-benzo[1,2-b]pyran-2yl)ethyl 2-(6-methoxy-2-naphthyl)propionate], in experiment [2] (concentration 1.0%), the “% Inhibition of Influx” value came to 40%. For the same molecule, in experiment [2], the “inhibition of neutrophil influx into the rat eye (in words)” value was “significantly inhibited neutrophil influx”. The IC50 on 5-lipoxygenase amounted to 1000 nM; in the experiment on bovine retinal pieces (Bos taurus), 6 nM; in experiment [1], 2230 nM.

With `COc1ccc2cc(C(C)C(=O)OCC3(C)CCc4c(C)c(O)c(C)c(C)c4O3)ccc2c1` (stereo not drawn) [Compound B, 2-(6-hydroxy-2,5,7,8-tetramethyl-3,4-dihydro-2H-benzo[1,2-b]pyran-2-yl)methyl 2-(6-methoxy-2-naphthyl)propionate], in experiment [1], half-maximal inhibition (IC50) was put at 1160 nM.

`COc1ccc2cc(C(C)C(=O)OCC3(C)Cc4c(C)c(O)c(C)c(C)c4O3)ccc2c1` (stereo not drawn) [Compound E, 2-(5-hydroxy-2,4,6,7-tetramethyl-2,3-dihydro-benzo[1,2-b]furan-2-yl)methyl2-(6-methoxy-2-naphthyl)propionate]: the IC50 in the experiment on bovine retinal pieces (Bos taurus) amounted to 10 nM.

Turning to `C[C@@H]1C[C@H]2[C@@H]3CCC4=CC(=O)C=C[C@]4(C)[C@@]3(F)[C@@H](O)C[C@]2(C)[C@@]1(O)C(=O)CO` [Dexamethasone, reference compound], the “% Inhibition of Influx” value in experiment [2] (concentration 0.1%) was determined as 93%.

For the molecule `COc1ccc2cc(C(C)C(=O)N(C)CC(O)c3ccc(O)c(O)c3)ccc2c1` (stereo not drawn) [Compound A, N-(2-(3,4-dihydroxyphenyl)-2-hydroxyethyl)-N-methyl 2-(6-methoxy-2-naphthyl)propionamide], the “% Inhibition of Influx” value in experiment [2] (concentration 0.1%) is reported as 40%. In addition, in experiment [2], the “inhibition of neutrophil influx into the rat eye (in words)” value is listed as “significantly inhibited neutrophil influx”. The IC50 is 4000 nM at 5-lipoxygenase and 150 nM in the experiment with bovine retinal pieces (Bos taurus).
